Holding throughout (assay type): biochemical
The target in assay [1] is E. feacium DltA (Enterococcus faecium, UniProt Q3XZT7). As to the kind of experiment: in vitro DltA activity assay (luminescence), E. faecium DltA. Conditions: recombinant DltA, 30 min pre-incubation, 0.5 mM D-Alanine, 0.5-5 μM ATP; read-out: E. feacium DltA IC50. Summed up:
(§1)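 His-tagged recombinant DltA (expressed in E. coli BL21, Ni-NTA purified) pre-incubated 30 min with inhibitor in 50 mM Hepes pH 8.0, MgCl2, KCl, Triton X-100, DTT. Reaction with 0.5 mM D-alanine, 0.5–5 µM ATP and pyrophosphatase for 1–2 h at RT, then residual ATP read by luciferase luminescence. IC50 from 6–10 concentrations, quench-corrected.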

Assay [2] deals with S. aureus DltA (Staphylococcus aureus (strain NCTC 8325 / PS 47), UniProt Q2FZW6). As to the kind of experiment: in vitro DltA activity assay (luminescence), S. aureus DltA. Conditions: recombinant DltA, 30 min pre-incubation, 0.5 mM D-Alanine, 0.5-5 μM ATP; read-out: S. aureus DltA IC50. Summed up:
as §1

The target in assay [3] is E. feacalis DltA (Enterococcus faecalis, UniProt Q830N0). Kind of assay: in vitro DltA activity assay (luminescence), E. faecalis DltA. The note with it: recombinant DltA, 30 min pre-incubation, 0.5 mM D-Alanine, 0.5-5 μM ATP; read-out: E. feacalis DltA IC50. Summed up: as §1
Sequence of E. feacalis DltA (Q830N0 1-506): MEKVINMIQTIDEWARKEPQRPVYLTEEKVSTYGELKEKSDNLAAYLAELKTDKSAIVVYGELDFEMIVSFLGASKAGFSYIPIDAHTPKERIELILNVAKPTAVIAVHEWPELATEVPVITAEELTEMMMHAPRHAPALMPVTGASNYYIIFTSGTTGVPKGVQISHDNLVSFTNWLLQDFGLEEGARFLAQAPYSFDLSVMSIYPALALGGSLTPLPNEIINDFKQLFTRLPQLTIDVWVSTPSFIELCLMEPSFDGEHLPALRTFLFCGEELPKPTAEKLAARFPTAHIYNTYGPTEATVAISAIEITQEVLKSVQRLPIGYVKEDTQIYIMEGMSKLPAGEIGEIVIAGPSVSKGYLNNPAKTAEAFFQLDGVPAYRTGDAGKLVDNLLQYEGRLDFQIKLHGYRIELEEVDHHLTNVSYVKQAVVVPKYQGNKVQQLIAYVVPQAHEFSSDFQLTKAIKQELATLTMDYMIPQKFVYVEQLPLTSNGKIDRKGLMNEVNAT
Assay [4] addresses S. Agalactiae DltA (Streptococcus agalactiae serotype III (strain NEM316), UniProt Q8VM67). As to the kind of experiment: in vitro DltA activity assay (luminescence), S. agalactiae DltA. Conditions: recombinant DltA, 30 min pre-incubation, 0.5 mM D-Alanine, 0.5-5 μM ATP; read-out: S. Agalactiae DltA IC50. Summed up:
as §1

Sequence of E. feacium DltA (Q3XZT7 1-504): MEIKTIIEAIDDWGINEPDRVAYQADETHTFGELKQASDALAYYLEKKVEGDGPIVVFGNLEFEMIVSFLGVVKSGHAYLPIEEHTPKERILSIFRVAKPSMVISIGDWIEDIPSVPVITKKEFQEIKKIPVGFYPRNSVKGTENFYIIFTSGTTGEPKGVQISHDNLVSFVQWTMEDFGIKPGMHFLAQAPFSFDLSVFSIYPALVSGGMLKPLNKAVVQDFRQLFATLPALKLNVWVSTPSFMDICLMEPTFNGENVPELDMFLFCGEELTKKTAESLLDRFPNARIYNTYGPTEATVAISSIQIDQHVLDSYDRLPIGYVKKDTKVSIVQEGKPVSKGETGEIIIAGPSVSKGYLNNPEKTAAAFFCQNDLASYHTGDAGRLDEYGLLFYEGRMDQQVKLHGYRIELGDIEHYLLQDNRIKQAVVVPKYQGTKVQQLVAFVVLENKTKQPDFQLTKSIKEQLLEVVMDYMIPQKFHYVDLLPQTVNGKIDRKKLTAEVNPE

By IC50 is commonly meant the concentration that inhibits the measured activity by half. In the case of `c1nc2c(-c3ccc4c(c3)ncn4C3CCCCC3)cc(N3CC4CNCC4C3)nc2[nH]1` (stereo not drawn) [Example 11, 7-(1-Cyclohexyl-1H-benzimidazol-5-yl)-5-(hexahydro-pyrrolo[3,4-c]pyrrol-2-yl)-3H-imidazo[4,5-b]pyridine], the IC50 is 30 nM in assay [1], 1.4 nM in assay [2], 19 nM in assay [3] and 260 nM in assay [4].
On the same counts, the results for `OCCNc1cc(-c2ccc3c(c2)ncn3C2CCCCC2)c2nc[nH]c2n1` [Example 4, 2-[7-(1-Cyclohexyl-1H-benzimidazol-5-yl)-3H-imidazo[4,5-b]pyridin-5-ylamino]-ethanol] are 2200 nM, 520 nM, 380 nM and 3100 nM.
On the same counts, the results for `CN(C)CCN(C)c1cc(-c2ccc(N(C)C)nc2)c2nc[nH]c2c1C(N)=O` [Example 205, 5-[2-(dimethylamino)ethyl-methyl-amino]-7-[6-(dimethylamino)-3-pyridyl]-3H-benzimidazole-4-carboxamide] are 30 nM, 140 nM, 9.2 nM and 4300 nM.
On the same counts, the results for `CN(CCN1CCCC1)c1cc(-c2ccc3c(c2)ncn3C2CCCCC2)c2nc[nH]c2c1C(N)=O` [Example 127, 1′-Cyclohexyl-6-[methyl-(2-pyrrolidin-1-yl-ethyl)-amino]-1H,1′H-[4,5′]bibenzimidazolyl-7-carboxamide] are 18 nM, 25 nM, 2.9 nM and 140 nM.
`CN(CCN1CCCC1)c1cc(-c2cnc3c(c2)CCCO3)c2nc[nH]c2c1C(N)=O` [Example 181, 7-(3,4-Dihydro-2H-pyrano[2,3-b]pyridin-6-yl)-5-[methyl-(2-pyrrolidin-1-yl-ethyl)-amino]-3H-benzimidazole-4-carboxamide]: the IC50 in assay [1] is 160 nM; in assay [2], 51 nM; in assay [3], 9.2 nM; in assay [4], 180 nM.
`c1nc2c(-c3ccc4c(c3)ncn4C3CCCCC3)cc(N3CC4CNCC4C3)cc2[nH]1` (stereo not drawn) [Example 36, 1′-Cyclohexyl-6-(hexahydro-pyrrolo[3,4-c]pyrrol-2-yl)-1H,1′H-[4,5′]bibenzimidazolyl]: the IC50 amounted to 1100 nM in assay [1], 80 nM in assay [2], 170 nM in assay [3] and 3800 nM in assay [4].

The values above are taken from patent US10301305B2 (priority 2014, dated 2019).
